Experimental data published in patent US5627177A, “Piperazine derivatives” (John Wyeth & Brother, Ltd., priority 1993, dated 1997).

What was measured:
5-HT1A receptor [1] = target: T1, 5-HT1A receptor (Rattus norvegicus, UniProt P19327); test: 5-HT1A receptor antagonism: antagonism of 8-hydroxy-2-(di-n-propylamino)-tetralin (8-OH DPAT) syndrome in the rat; assay type: in vivo; set-up: syndrome in the rat; from tissue; host or cells: whole living rat (in vivo); settings: sc, antagonism of 8-OH DPAT syndrome, read-out: median effective dose
T1 sequence (P19327 1-422): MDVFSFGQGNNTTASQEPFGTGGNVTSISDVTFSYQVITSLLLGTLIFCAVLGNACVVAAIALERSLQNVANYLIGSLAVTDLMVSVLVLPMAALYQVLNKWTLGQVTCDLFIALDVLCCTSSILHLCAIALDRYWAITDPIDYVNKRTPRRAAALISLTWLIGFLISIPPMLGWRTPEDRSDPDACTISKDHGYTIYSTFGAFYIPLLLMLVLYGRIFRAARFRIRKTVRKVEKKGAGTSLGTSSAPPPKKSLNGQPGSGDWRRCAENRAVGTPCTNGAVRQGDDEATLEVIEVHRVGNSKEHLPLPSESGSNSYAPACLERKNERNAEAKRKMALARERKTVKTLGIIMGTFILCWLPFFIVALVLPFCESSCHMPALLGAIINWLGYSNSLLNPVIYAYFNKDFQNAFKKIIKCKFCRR
Experimental: The compounds are also tested for 5-HT1A receptor antagonism activity in a test involving the antagonism of 8-hydroxy-2-(di-n-propylamino)-tetralin (8-OH DPAT) syndrome in the rat.

5-HT1A receptor [2] = target: T1, 5-HT1A receptor; test: 5-HT1A receptor binding activity in rat hippocampal membrane homogenate; set-up: from tissue
Experimental: The compounds of the invention are tested for 5-HT1A receptor binding activity in rat hippocampal membrane homogenate by the method of B. S. Alexander and M. D. Wood, J Pharm Pharmacol, 1988, 40, 888-891.

ED50 (5-HT1A receptor [1]): 0.3 mg/kg
IC50 (5-HT1A receptor [2]): 0.72 nM
Compound: COC(=O)c1cc2c(N3CCN(CCC(C(=O)N4CCCCCC4)c4ccccc4)CC3)cccc2[nH]1 (racemic) [Example 5, 4-[4-(4-Azepan-1-yl-4-oxo-3-phenylbutyl)piperazin-1-yl]-1H-indole-2-carboxylic acid methyl ester]
